Calls of active or inactive are those of the source.
Legend:
[1] = target: T1, Heat shock factor protein 1 (Mus musculus, UniProt P38532); test: decrease of HSF1-responsive luciferase luminescence – cell-based, NIH3T3, dose retest, confirmation (AID 2382); type: functional;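 also: NIH3T3 fibroblasts with HSF1-driven luciferase reporter stressed by proteasome inhibitor MG132; luminescence from HSF1-driven luciferase expression after 8 hours of MG132 stress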
T1 sequence (P38532 whole entry): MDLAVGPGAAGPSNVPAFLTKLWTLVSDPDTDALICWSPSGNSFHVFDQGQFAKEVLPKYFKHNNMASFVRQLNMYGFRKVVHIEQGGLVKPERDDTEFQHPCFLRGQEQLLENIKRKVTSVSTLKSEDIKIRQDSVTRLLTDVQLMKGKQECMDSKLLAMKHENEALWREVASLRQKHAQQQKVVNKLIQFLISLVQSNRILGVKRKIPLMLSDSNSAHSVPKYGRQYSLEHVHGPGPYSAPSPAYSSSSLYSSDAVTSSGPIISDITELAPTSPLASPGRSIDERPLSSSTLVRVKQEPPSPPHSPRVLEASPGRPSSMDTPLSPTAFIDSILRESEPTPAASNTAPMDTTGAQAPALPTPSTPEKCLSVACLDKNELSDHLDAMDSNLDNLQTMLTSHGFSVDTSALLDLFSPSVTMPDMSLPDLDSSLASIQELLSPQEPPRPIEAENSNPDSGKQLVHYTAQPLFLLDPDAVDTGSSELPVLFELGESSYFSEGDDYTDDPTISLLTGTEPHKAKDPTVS

[2] = target: T1, Heat shock factor protein 1; test: enhancement of HSF1-driven luciferase signal – cell-based, NIH3T3, luminescence, dose retest, confirmation (AID 435004); type: functional;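 also: stress induced by proteasome inhibitor MG132 added 30 min after compound; luciferase reporter driven by HSF1 response element in NIH3T3 cells; actives raise luminescence as potentiators of the MG132 stress response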
Cytochrome P450 2C19 = Cytochrome P450 2C19 (Homo sapiens, UniProt P33261); test: Cytochrome panel assay with activity outcomes. Panel member name: p450-cyp2c19 Compounds with AC50 equal or less than 10 uM are considered active; type: functional; conditions: read-out: AC50
Cytochrome P450 2C19, sequence (P33261 whole entry): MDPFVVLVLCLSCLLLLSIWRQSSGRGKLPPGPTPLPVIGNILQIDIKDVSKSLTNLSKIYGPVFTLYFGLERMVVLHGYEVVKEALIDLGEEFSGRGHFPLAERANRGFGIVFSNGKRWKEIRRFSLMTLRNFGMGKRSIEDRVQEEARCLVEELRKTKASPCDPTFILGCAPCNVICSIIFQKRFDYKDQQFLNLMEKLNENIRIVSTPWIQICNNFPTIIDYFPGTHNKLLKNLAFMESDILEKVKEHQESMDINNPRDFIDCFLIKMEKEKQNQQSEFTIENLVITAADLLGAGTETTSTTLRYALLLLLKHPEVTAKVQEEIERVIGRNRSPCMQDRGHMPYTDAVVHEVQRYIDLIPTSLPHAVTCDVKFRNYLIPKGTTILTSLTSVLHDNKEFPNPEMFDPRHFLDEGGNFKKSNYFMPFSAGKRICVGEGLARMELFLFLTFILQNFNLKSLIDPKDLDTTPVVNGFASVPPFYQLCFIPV

[3] = Luminescence Cell-Based Dose Response HTS to Identify Inhibitors of 5'UTR Stem-Loop Driven Prion Protein mRNA Translation in H4 Neuroglioblastoma Cells. [Related pubchem assays: 1827 (Project Summary), 1813 (Primary HTS)]; type: functional
[4] = luciferase reporter signal suppression in cells – H4 neuroglioma cells, luminescence, dose response (AID 1990); type: functional, cell-based
[5] = alpha-synuclein stem-loop luciferase translation blockers – H4 neuroglioma cells, luminescence, confirmation (AID 1988); type: functional, cell-based
[6] = Trypanosoma cruzi growth suppression in host cells – NIH3T3 host cells, beta-gal luminescence, confirmation (AID 2044); type: functional, cell-based;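 also: intracellular parasites grown in NIH/3T3 mouse fibroblasts as host cells; luminescent beta-galactosidase reporter signal from transgenic T. cruzi replicating inside host cells; inhibitors lower the luminescence signal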
[7] = NIH3T3 cell viability loss – ATP luminescence, mouse fibroblasts, counter-screen, dose response (AID 2010); type: functional, cell-based;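 also: cells exposed to compound for about 90 hours before reading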
Streptococcus = test: GAS UMAA2166 growth inhibition – luminescence, BacTiterGlo, counter-screen for streptokinase expression inhibitor project, dose response (AID 1915); type: functional, organism-based;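 also: potency for reduction of bacterial viability or growth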
[8] = test system: Streptococcus sp. 'group A'; test: Streptococcus pyogenes SK(-)GAS viability under kanamycin – luminescence, BacTiterGlo, confirmation, counter-screen for streptokinase expression inhibitor project, dose response (AID 1900); type: functional, organism-based

SMILES: Cc1cc(N2CCN(c3ccc(F)cc3)CC2)nc2cc(O)ccc12
- EC50 [1]: > 195 µM (not active)

SMILES: Cc1ccc(S(=O)(=O)NCCOc2nc(N3CCOCC3)nc(N3CCOCC3)n2)cc1
- EC50 [2]: > 260 µM (inactive)

SMILES: O=C(CN1CC(c2ccccc2)CC1=O)NCc1ccc(F)cc1 (stereo not drawn)
- EC50 [1]: > 195 µM (not active)

SMILES: COC(=O)c1sccc1NC(=O)c1cc(-c2ccc(C)cc2C)nc2ccccc12
- AC50 (Cytochrome P450 2C19): 3.55 µM (inconclusive)

SMILES: N#Cc1ccccc1Cn1cc(C(=O)c2ccccc2F)c2ccccc21
- EC50 [3]: > 120 µM (not active)
- EC50 [4]: 54.6 µM (active)
- EC50 [5]: > 120 µM (not active)

SMILES: COc1ccc(OCCN2C(=O)c3ccccc3C2=O)cc1
- EC50 [1]: > 195 µM (not active)

SMILES: CC(=O)O[C@@]12CO[C@@H]1C[C@H](O)[C@@]1(C)C(=O)[C@H](O)C3=C(C)[C@@H](OC(=O)[C@H](O)[C@@H](NC(=O)OC(C)(C)C)c4ccccc4)C[C@](O)([C@@H](OC(=O)c4ccccc4)[C@H]21)C3(C)C
- EC50 [6]: < 0.1 µM (active)

SMILES: COc1ccc(C(C(=O)NC2CCCC2)N(C(=O)c2snc(-c3ccc(F)cc3)c2N)c2ccc(OC)cc2)cc1 (stereo not drawn)
- EC50 [7]: > 60 µM (not active)
- EC50 [6]: 1.59 µM (active)

SMILES: C=CCC(NCc1ccco1)c1ccc(OC)c(OC)c1 (stereo not drawn)
- EC50 [2]: > 260 µM (inactive)

SMILES: CN1CCC(N(C)S(=O)(=O)c2ccc(C(C)(C)C)cc2)CC1
- EC50 [7]: 35.5 µM (active)
- EC50 [6]: 0.249 µM (active)

SMILES: Cc1cc(C)n(-c2cc(N3CCN(S(=O)(=O)c4ccc5ccccc5c4)CC3)ccc2[N+](=O)[O-])n1
- EC50 [3]: 26.7 µM (active)
- EC50 [4]: 12 µM (active)
- EC50 [5]: 15.7 µM (active)

SMILES: Cc1ccc(OCC(O)CNCc2ccc(F)cc2)cc1 (stereo not drawn)
- EC50 [7]: > 60 µM (not active)
- EC50 [6]: 0.321 µM (active)

SMILES: CC(C)(CNC(=O)/C=C/c1ccc(F)cc1)CNC(=O)/C=C/c1ccc(F)cc1
- EC50 [2]: 3.75 µM (active)

SMILES: O=C(NCCCN1CCOCC1)c1ccc([N+](=O)[O-])cc1[N+](=O)[O-]
- EC50 [7]: > 30 µM (not active)
- EC50 [6]: 0.582 µM (active)

SMILES: COc1cc2c(c(O)c1OC)C(=O)C(OC)CCC2 (stereo not drawn)
- AC50 (Cytochrome P450 2C19): 6.31 µM (inconclusive)

SMILES: CC1CN(C(=O)c2ccccc2)/C(=N/c2cccc(S(=O)(=O)N(C)C)c2)S1 (stereo not drawn)
- EC50 [3]: > 120 µM (not active)
- EC50 [4]: > 120 µM (not active)
- EC50 [5]: > 120 µM (not active)

SMILES: COc1ccccc1N(CC(=O)N/N=C(\C)c1ccccc1O)S(=O)(=O)c1ccc(C)cc1
- EC50 [7]: 5.18 µM (active)
- EC50 [6]: 4.7 µM (active)

SMILES: CN(CCc1ccccc1)C(=O)c1cc(COc2cccc(C(F)(F)F)c2)on1
- EC50 [2]: > 260 µM (inactive)

SMILES: O=C(Cc1cccs1)N/N=C/c1ccco1
- EC50 (Streptococcus): 2.18 µM (active)
- EC50 [8]: 2.88 µM (active)

SMILES: Cc1ccc(C(C)C)c(OCC(=O)Nc2ccc3c(c2)nc(CCN2CCCCC2)n3C)c1
- EC50 [3]: 35.8 µM (active)
- EC50 [4]: 10 µM (active)
- EC50 [5]: 11.4 µM (active)

SMILES: Cc1ccc(-c2csc3ncnc(-n4nnc5ccccc54)c23)cc1C
- EC50 [3]: > 120 µM (not active)
- EC50 [4]: 15 µM (active)
- EC50 [5]: > 60 µM (not active)

SMILES: Cc1ccc(-n2nc3c(=O)n(CCCC(=O)NCc4ccc(Cl)cc4)nc(C)c3c2C)cc1
- EC50 [3]: > 120 µM (not active)
- EC50 [4]: 0.94 µM (active)
- EC50 [5]: 19.5 µM (active)

SMILES: O=C(O)CCNS(=O)(=O)c1ccccc1C(F)(F)F
- EC50 [1]: > 195 µM (not active)

SMILES: CC(Nc1nc(-c2ccncc2)nc2ccccc12)c1ccccc1 (stereo not drawn)
- EC50 [7]: 4.4 µM (active)
- EC50 [6]: 0.596 µM (active)

SMILES: O=C(Nc1cccc(-c2nc3ncccc3o2)c1)c1ccco1
- EC50 [7]: > 60 µM (not active)
- EC50 [6]: 0.249 µM (active)

SMILES: CN1Cc2sc(NC(=S)NC(=O)c3ccccc3)c(C#N)c2CC1(C)C
- EC50 [1]: 13.9 µM (active)

SMILES: Cc1noc(C)c1-c1cc(Nc2ccccc2)ncn1
- AC50 (Cytochrome P450 2C19): 20 µM (inconclusive)

SMILES: COc1ccc(SCCc2ccncc2)cc1
- EC50 [7]: > 60 µM (not active)
- EC50 [6]: 1.1 µM (active)

SMILES: CC1CC(C)(C)N=C(S)N1CCC(=O)NCc1ccc(Cl)cc1 (stereo not drawn)
- EC50 [3]: 33.7 µM (active)
- EC50 [4]: > 120 µM (not active)
- EC50 [5]: > 120 µM (not active)

SMILES: CCC1CCCCN1S(=O)(=O)c1ccc(C(=O)Nc2nnc(C3CC3)o2)cc1 (stereo not drawn)
- EC50 (Streptococcus): 7.56 µM (active)
- EC50 [8]: 4.34 µM (active)

SMILES: NC(=O)c1c(NC(=O)Cc2ccccc2)sc2c1CCN(Cc1ccccc1)C2
- EC50 [2]: > 260 µM (inactive)

SMILES: Cn1cc(C(=O)N/N=C/c2cc(Br)cs2)c2ccccc21
- EC50 [2]: 42.9 µM (active)

SMILES: CCOc1ccc(C2=Nn3c(nnc3-c3cccnc3)SC2)cc1
- EC50 [3]: > 120 µM (not active)
- EC50 [4]: 16 µM (active)
- EC50 [5]: 37.8 µM (active)

SMILES: Cc1cc(NC(=O)CCC(=O)N(CC(=O)NC2CCCC2)Cc2cccs2)no1
- EC50 [2]: > 260 µM (inactive)

SMILES: O=C1NC(=O)N(c2ccccc2F)C(=O)/C1=C/NCCC1=CCCCC1
- EC50 [2]: > 260 µM (inactive)

SMILES: O=c1c(-c2ccccc2)nc2cnc(N3CCNCC3)nc2n1C1CC1
- AC50 (Cytochrome P450 2C19): 39.8 µM (inconclusive)

SMILES: N#Cc1cccc(-c2nc(NCCN3CCOCC3)c3ccccc3n2)c1
- AC50 (Cytochrome P450 2C19): 15.8 µM (inconclusive)

SMILES: CCCCCn1c(SCc2cccc(C)c2)nc2c1c(=O)[nH]c(=O)n2C
- EC50 [2]: > 260 µM (inactive)

SMILES: CCCN(CCC)S(=O)(=O)c1ccc(C(=O)Nc2nnc(COC)o2)cc1
- EC50 (Streptococcus): 4.59 µM (active)
- EC50 [8]: 5.99 µM (active)

SMILES: Cc1cccc2c1NC(C)CC2C (stereo not drawn)
- EC50 [7]: > 30 µM (not active)
- EC50 [6]: 4.83 µM (active)

SMILES: COc1ccc(CCNc2ncnc3c2c(C)c(C)n3CCO)cc1OC
- EC50 [2]: > 260 µM (inactive)

SMILES: CN1CCN(/N=C/c2cccc(Cl)c2Cl)CC1
- EC50 [7]: > 60 µM (not active)
- EC50 [6]: 0.321 µM (active)

SMILES: COc1cc(O)cc2c1C(=O)OC(C)CCCC(=O)CCC/C=C\2 (stereo not drawn)
- EC50 [2]: > 260 µM (inactive)

SMILES: C[C@H]1[C@H](C)CC[C@]2(C(=O)O)CC[C@]3(C)C(=CC[C@@H]4[C@@]5(C)C[C@@H](O)[C@H](O)C(C)(C)[C@@H]5CC[C@]43C)[C@H]12 [COROSOLIC ACID]
- EC50 (Streptococcus): 2.79 µM (active)
- EC50 [8]: 2.92 µM (active)

SMILES: CCOC(=O)N1CCN(C(=O)c2ccc3nc4ccc(Cl)cc4c(=O)n3c2)CC1
- EC50 [3]: 37.5 µM (active)
- EC50 [4]: > 120 µM (not active)
- EC50 [5]: 7.83 µM (active)

SMILES: O=C1Nc2ccccc2N(O)N1c1cc(-c2ccccc2Cl)no1
- EC50 [3]: 70.3 µM (active)
- EC50 [4]: 31.6 µM (active)
- EC50 [5]: > 120 µM (not active)

SMILES: COc1ccc(C(=N)NOC(=O)c2ccc3c(c2)OCO3)cc1OC
- EC50 [7]: 27 µM (active)
- EC50 [6]: 2.5 µM (active)

SMILES: COC(=O)C1=C(Nc2ccc(C)cc2)C=C(C)C(C(=O)OC)C1c1cccc(OC)c1 (stereo not drawn)
- EC50 [7]: 6.59 µM (active)
- EC50 [6]: 2.26 µM (active)

SMILES: Cc1cccc(C)c1NC(=O)COc1ccccc1C(=O)Nc1ccc(Br)cn1
- EC50 [3]: > 120 µM (not active)
- EC50 [4]: > 120 µM (not active)
- EC50 [5]: 94.5 µM (active)

SMILES: COc1ccc(NC(=O)CCc2nnc3ccc(NCc4ccc5c(c4)OCO5)nn23)cc1
- EC50 [2]: > 260 µM (inactive)

SMILES: Cc1c(Cl)cccc1N=C(S)N(Cc1cccnc1)Cc1ccccc1Cl
- EC50 [7]: > 60 µM (not active)
- EC50 [6]: 0.516 µM (active)

SMILES: CCN(CC)S(=O)(=O)N1CCC(C(=O)N2CCC3(CC2)OCCO3)CC1
- EC50 [3]: 17.6 µM (active)
- EC50 [4]: > 120 µM (not active)
- EC50 [5]: > 120 µM (not active)
